Where “and” joins values, the source holds several entries; their conditions need not be identical. Identical values can stand only once.

Sequence of Protein disulfide-isomerase (Homo sapiens) (P07237 whole entry, looked up): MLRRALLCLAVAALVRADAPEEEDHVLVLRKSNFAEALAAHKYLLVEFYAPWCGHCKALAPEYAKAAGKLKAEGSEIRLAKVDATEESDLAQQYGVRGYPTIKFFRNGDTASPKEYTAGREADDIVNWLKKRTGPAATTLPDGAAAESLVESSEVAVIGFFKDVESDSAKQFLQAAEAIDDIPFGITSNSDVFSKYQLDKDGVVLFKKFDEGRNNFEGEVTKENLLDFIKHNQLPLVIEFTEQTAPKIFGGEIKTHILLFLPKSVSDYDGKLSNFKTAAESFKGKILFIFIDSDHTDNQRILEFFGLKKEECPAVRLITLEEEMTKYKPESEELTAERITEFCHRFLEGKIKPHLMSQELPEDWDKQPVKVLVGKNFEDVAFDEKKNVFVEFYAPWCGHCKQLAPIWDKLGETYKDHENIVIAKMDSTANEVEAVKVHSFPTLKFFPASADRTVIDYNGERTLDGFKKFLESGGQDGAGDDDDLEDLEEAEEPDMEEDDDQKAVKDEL

The assay addresses Protein disulfide-isomerase (Homo sapiens) (UniProt P07237). In words: inhibition of PDI-mediated insulin reduction – biochemical, turbidity, absorbance, cherry-picked samples, set 2, dose response (AID 624274). Conditions: absorbance 650 nm.
As for `Cc1noc(C)c1S(=O)(=O)Nc1ccc2c(c1)CC(=O)N([C@@H](C)CO)C[C@H](C)[C@H](CN(C)S(=O)(=O)c1ccc(F)cc1)O2`, the half-maximal activity concentration (AC50) was 19.5 µM.

For `COC(=O)CC1OCC=C2CN3CCC45C6=CC(=O)C(=O)C([N+](=O)[O-])=C6NC4C1C2CC35` (centres undefined), the AC50 is 8.03 µM.

Consider `O=S(=O)(c1ccccc1)N1N=C(c2ccc(O)cc2)CC1c1ccco1` (centres undefined), for which the AC50 was 19.5 µM.

Turning to `C[C@H](CO)N1C[C@H](C)[C@@H](CN(C)Cc2ccc(Oc3ccccc3)cc2)Oc2c(NS(C)(=O)=O)cccc2C1=O`, the AC50 was 19.5 µM.

For `O=c1c(O[C@@H]2O[C@H](CO)[C@@H](O)[C@H](O)[C@H]2O)c(-c2ccc(O)cc2)oc2cc(O)cc(O)c12`, the half-maximal activity concentration (AC50) is 19 µM.

As to `COc1cc2cc(C(=O)N3CC(COS(C)(=O)=O)c4ccc(O)cc43)[nH]c2c(OC)c1OC` (centres undefined), the AC50 was 18 µM.

Take `O=c1c(O[C@H]2O[C@@H](CO)[C@H](O)[C@@H](O)[C@@H]2O)c(-c2ccc(O)cc2)oc2cc(O)cc(O)c12`: the half-maximal activity concentration (AC50) was 0.0155 µM.

With `CCc1cc(OCCCCNCc2ccccc2)ccc1Cl`, the AC50 is 10.6 µM.

Take `Cc1ccc(S(=O)(=O)CCC(=O)c2ccc(O)cc2O)cc1`: the AC50 was 15.6 µM.

As for `C[C@@H]1O[C@@H](O[C@H]2[C@H](O)[C@@H](O)[C@H](Oc3c(-c4ccc(O)cc4)oc4cc(O)cc(O)c4c3=O)O[C@@H]2CO)[C@H](O)[C@H](O)[C@H]1O`, the AC50 is 6.92 µM.

For `C[C@@H]1O[C@@H](O[C@H]2[C@H](O)[C@@H](O)[C@H](Oc3c(-c4ccc(O)c(O)c4)oc4cc(O)cc(O)c4c3=O)O[C@@H]2CO)[C@H](O)[C@H](O)[C@H]1O`, the AC50 was 4.28 µM.

Consider `C[C@H](CO)N1C[C@H](C)[C@@H](CN(C)S(=O)(=O)c2ccc(F)cc2)Oc2ccc(NC(=O)Cc3cn(C)c4ccccc34)cc2C1=O`, for which the AC50 is 19.5 µM.

Regarding `C[C@H]1CN([C@@H](C)CO)C(=O)c2cccc(NS(C)(=O)=O)c2O[C@@H]1CN(C)Cc1ccc(Oc2ccccc2)cc1`, the half-maximal activity concentration (AC50) is 19.5 µM.

Turning to `COc1cccc(NS(=O)(=O)c2ccc3c(c2)C2C=CCC2C(c2ccc(C(=O)O)cc2)N3)c1` (centres undefined), the half-maximal activity concentration (AC50) is 15.8 µM.

On to `CCN1C(=O)C2C(c3ccccc3F)NC(Cc3ccc(O)cc3)(C(=O)OC)C2C1=O` (centres undefined), for which the AC50 is 10.2 µM.

In the case of `Cc1ccc2nc(N3CCN(Cc4nnnn4C4CCCC4)CC3)c(C#N)cc2c1`, the concentration at half-maximal activity (AC50) was 4.05 µM.

Take `CC[C@]12c3[nH]c4cc(-c5ccco5)ccc4c3CCN1C(=O)[C@@H](CC(=O)NCCCOC)C[C@@H]2C(=O)N1CCN(C(=O)c2ccco2)CC1`: the AC50 was 16.7 µM.

With `COc1ccc(C2c3ccc(O)cc3Oc3ncn(CCN4CCOCC4)c(=N)c32)cc1OC` (centres undefined), the AC50 is 15.5 µM.

In the case of `C[C@H]1CN([C@@H](C)CO)C(=O)c2cc(NC(=O)Cc3cn(C)c4ccccc34)ccc2O[C@H]1CN(C)S(=O)(=O)c1ccc(F)cc1`, the AC50 was 19.5 µM.

With `Cc1noc(C)c1S(=O)(=O)Nc1ccc2c(c1)CC(=O)N([C@H](C)CO)C[C@H](C)[C@H](CN(C)S(=O)(=O)c1ccccc1)O2`, the half-maximal activity concentration (AC50) was 19.5 µM.

Consider `CN(C)S(=O)(=O)c1ccc(Cl)c(NC(=O)CSc2nnnn2-c2ccc(O)cc2)c1`, for which the concentration at half-maximal activity (AC50) was 19.5 µM.

Regarding `Cn1cnnc1Sc1ccc(/C=C/C(=O)c2ccc(O)cc2)cc1[N+](=O)[O-]`, the AC50 was 0.422 µM.

Take `COc1ccc(/C=C2\CN(Cc3ccccc3)C/C(=C\c3ccc(OC)c(O)c3)C2=O)cc1O`: the AC50 is 2.98 µM.

In the case of `CCOC(=O)c1c(CNCCN(CC)CC)n(C)c2cc(Br)c(OC)cc12`, the concentration at half-maximal activity (AC50) is 0.376 µM.

Consider `C/C=C(\C)C(=O)NCCN1C2=NC[C@H](Cc3ccc(O)cc3)N2C[C@H]1Cc1ccc(O)cc1`, for which the AC50 was 15.4 µM.

In the case of `Cc1noc(C)c1S(=O)(=O)Nc1ccc2c(c1)CC(=O)N([C@H](C)CO)C[C@H](C)[C@H](CN(C)S(=O)(=O)c1ccc(F)cc1)O2`, the AC50 was 19.5 µM and 16.9 µM.

Turning to `Cc1c(O)ccc2c(CN3CCN(CCO)CC3)cc(=O)oc12`, the AC50 is 8.66 µM.

In the case of `O=C(CCC1CCCCC1)NCCN1C2=NC[C@H](Cc3ccc(O)cc3)N2C[C@H]1Cc1ccc(O)cc1`, the AC50 was 19.5 µM.

Regarding `C[C@@H]1CN([C@@H](C)CO)C(=O)c2cc(NC(=O)Cc3cn(C)c4ccccc34)ccc2O[C@H]1CN(C)S(=O)(=O)c1ccc(F)cc1`, the half-maximal activity concentration (AC50) is 2.08 µM.

Turning to `Cc1cc(O)cc2c1C1CCC3(C)C(=O)CCC3C1C=C2` (centres undefined), the concentration at half-maximal activity (AC50) is 19.5 µM.

As to `C[C@@H]1CN([C@@H](C)CO)C(=O)c2cccc(NS(C)(=O)=O)c2O[C@H]1CN(C)Cc1ccc(Oc2ccccc2)cc1`, the AC50 was 19.5 µM and 7.04 µM.

Consider `CCN1C[C@]2(COC(=O)c3ccccc3N)CC[C@H](OC)C34[C@@H]5C[C@H]6[C@H](OC)[C@@H]5[C@](O)(C[C@@H]6OC)[C@@](O)([C@H]13)[C@@H](OC)[C@@H]42`, for which the half-maximal activity concentration (AC50) was 19.5 µM.

For the compound `Cc1cccn2c(CN(C)C3CCCc4ccccc43)c(C(=O)N3CCOCC3)nc12` (centres undefined), the AC50 is 19.5 µM.

As to `Cc1n[nH]c(=O)c2c(NC(=O)CSc3nnnn3-c3ccc(O)cc3)oc(C)c12`, the AC50 was 19.5 µM.

With `CCN1CC2(COC(=O)c3ccccc3N)CCC(OC)C34C5CC6C(OC)CC(O)(C5C6OC)C(O)(C(OC)C23)C14` (centres undefined), the concentration at half-maximal activity (AC50) is 19.5 µM.

For the compound `CC(=O)OC[C@H]1O[C@@H](Oc2cc(O)cc3oc(-c4ccc(O)cc4)cc(=O)c23)[C@H](O[C@@H]2O[C@@H](C)[C@H](O)[C@@H](O)[C@H]2O)[C@@H](O)[C@@H]1O`, the half-maximal activity concentration (AC50) was 19.5 µM.

Turning to `COc1ccc(N2CCN(CC(=O)c3ccc(O)c(C)c3O)CC2)cc1`, the AC50 is 19.5 µM.

For the compound `O=C1NC[C@H](Cc2ccccc2)N(C[C@H]2CCCN2C[C@H](Cc2ccccc2)N2C[C@H](Cc3ccc(O)cc3)N(CCc3ccccc3)C(=O)C2=O)C1=O`, the AC50 was 6.5 µM.

For the compound `O=c1c(OC2OC(CO)C(O)C(O)C2O)c(-c2ccc(O)c(O)c2)oc2cc(O)cc(O)c12` (centres undefined), the concentration at half-maximal activity (AC50) is 8.92 µM.

For `CC(C)Sc1nnc([C@H](Cc2c[nH]c3ccccc23)NC(=O)OC(C)(C)C)o1`, the AC50 is 19.5 µM.

Regarding `COc1ccccc1N1CCN(C(=O)C(=O)N/N=C/c2cccc(O)c2)CC1`, the AC50 was 19.5 µM.

On to `COc1ccc2c(CC(=O)OCC(=O)N(C)c3c(N)n(Cc4ccccc4)c(=O)[nH]c3=O)coc2c1`, for which the AC50 is 5.45 µM.

Regarding `C[C@@H]1O[C@@H](O[C@@H]2C(=O)c3c(O)cc(O)cc3O[C@H]2c2ccc(O)c(O)c2)[C@H](O)[C@H](O)[C@H]1O`, the AC50 is 10.2 µM.

Consider `Oc1ccc(/C=C/c2nc(-c3ccccc3O)n(-c3ccccc3)n2)cc1`, for which the AC50 was 18.8 µM.

Regarding `COC1/C=C/C=C(\C)Cc2cc(O)c(Cl)c(c2)N(C)C(=O)CC(OC(=O)C(C)C)C2(C)OC2C(C)C2CC1(O)NC(=O)O2` (centres undefined), the concentration at half-maximal activity (AC50) was 9.59 µM.

With `C[C@@H]1O[C@@H](OC[C@@H]2O[C@H](Oc3c(-c4ccc(O)cc4)oc4cc(O)cc(O)c4c3=O)[C@@H](O)[C@H](O)[C@H]2O)[C@H](O)[C@H](O)[C@H]1O`, the concentration at half-maximal activity (AC50) was 3.51 µM.

As to `O=C(c1ccco1)N1CCN(Cc2cc(=O)oc3cc(O)ccc23)CC1`, the AC50 is 19.5 µM.

In the case of `Cc1noc(C)c1S(=O)(=O)Nc1ccc2c(c1)CC(=O)N([C@H](C)CO)C[C@H](C)[C@@H](CN(C)S(=O)(=O)c1ccc(F)cc1)O2`, the AC50 is 19.5 µM.

On to `CC[C@]12c3[nH]c4cc(-c5ccco5)ccc4c3CCN1C(=O)[C@@H](CC(=O)NCc1ccc(OC)c(OC)c1)C[C@@H]2C(=O)N1CCN(C(=O)c2ccco2)CC1`, for which the concentration at half-maximal activity (AC50) is 4.25 µM.

Regarding `CCOc1cc(N2CCOCC2)c(OCC)cc1NC(=O)COC(=O)[C@H](Cc1c[nH]c2ccccc12)NC(C)=O`, the half-maximal activity concentration (AC50) was 19.5 µM.

For `O=C1NC[C@H](Cc2ccc(O)cc2)N(CC2CCCCC2)C1=O`, the AC50 was 19.5 µM.

With `CC(Cc1ccccc1Sc1ccccc1O)N(C)C` (centres undefined), the AC50 was 15.9 µM.

On to `O=C(NC(Cc1ccc(O)cc1)C(=O)N=Nc1c(O)[nH]c2ccccc12)c1ccccc1` (centres undefined), for which the concentration at half-maximal activity (AC50) was 19.5 µM.

Consider `C[C@H]1CN([C@@H](C)CO)C(=O)c2cc(NC(=O)Cc3cn(C)c4ccccc34)ccc2O[C@@H]1CN(C)S(=O)(=O)c1ccc(F)cc1`, for which the concentration at half-maximal activity (AC50) is 19.5 µM.
